Values quoted from earlier work in article PMC5601361, “Targeting the Receptor for Advanced Glycation Endproducts (RAGE): A Medicinal Chemistry Perspective” (Journal of Medicinal Chemistry, 2017).
“Also recorded” adds a separate entry of the source. Like-named read-outs stand apart in the source and are kept apart here.

Experiments:
human sRAGE [1] = target: human sRAGE; set-up: method as in PMID 17660747; details: V domain, SPR
human sRAGE [2] = details: VC1 domain; ITC; read-out: affinity for RAGE (Kd)
human sRAGE [3] = details: SPR
human sRAGE [4] = target: human sRAGE; set-up: method as in PMID 17508727; details: SPR
human brain tissue = test system: human brain tissue; set-up: method as in PMID 26771209
[5] = set-up: method as in PMID 26771209
[6] = set-up: method as in PMID 26771209; remark: listed apart in the source
diabetic mice = test system: diabetic mice; set-up: method as in PMID 18245563, PMID 26807573, PMID 14568011
[7] = test system: RAGE-overexpressing SH-SY5Y cells
Aβ = test system: Aβ; set-up: method as in PMID 26899576; details: 50 μM
[8] = test system: immune-deficient mice implanted with cancer cells; set-up: method as in PMID 22718861; details: ip delivery
[9] = test system: pancreatic cancer cell lines; set-up: method as in PMID 22718861; details: several cancer cell lines
HT22 cells = details: 10 μM
[10] = test system: human RAGE-Aβ1–42 interaction; set-up: method as in PMID 26051601; details: in vitro
CHO cells = test system: CHO cells; set-up: method as in PMID 23140885; details: in vitro
[11] = test system: RAGE-overexpressing brain endothelial cells monolayer; set-up: method as in PMID 23140885; details: artificial BBB system
human RAGE-Aβ = test system: human RAGE-Aβ; set-up: method as in PMID 23140885
human RAGE [12] = target: human RAGE; set-up: method as in PMID 22493510, PMID 21347371; details: SPR on human RAGE
tumor cell = test system: tumor cell; set-up: method as in PMID 23421467; details: in vitro and in vivo
human RAGE-Aβ1–42 = details: at 20 μM; ELISA on human RAGE-Aβ1–42
[13] = set-up: method as in PMID 25533401
aortas of aged rats = test system: aortas of aged rats; set-up: method as in PMID 25160740
[14] = test system: RAGE-transfected CHO cells
[15] = test system: Wistar rats treated with AGEs; set-up: method as in PMID 26738988; details: ip 1 mg/kg/day for 4 weeks
rats = test system: rats; set-up: method as in PMID 25757085, PMID 20223279
human RAGE [16] = target: human RAGE; set-up: method as in PMID 25084534; details: V domain; Ca2+-bound S100P homodimer; read-out: affinity for RAGE (Kd)

In the case of “S100B: Ca2+-binding S100/calgranulin family protein, endogenous RAGE ligand [Compound S100B]”, the Kd (human sRAGE [1]; S100B dimer, read-out: Kd) is listed as 8300 nM, the Kd (human sRAGE [1]; S100B tetramer, read-out: Kd1) is listed as 1100 nM and the Kd (human sRAGE [1]; S100B tetramer, read-out: Kd2) is listed as 42 nM. For the same molecule, the Kd (human sRAGE [2]) was 3200 to 9400 nM, the Kd (human sRAGE [3]; V domain, read-out: Kd1) was 500 nM and the Kd (human sRAGE [3]; V domain, read-out: Kd2) was 600 nM. For the same molecule, the Kd (human sRAGE [3]; VC1 domain, read-out: Kd1) was 11 nM, the Kd (human sRAGE [3]; VC1 domain, read-out: Kd2) was 200 nM and the Kd (human sRAGE [4]; V domain, read-out: Kd1) was 550 nM. For the same molecule, the Kd (human sRAGE [4]; V domain, read-out: Kd2) was 470 nM, the Kd (human sRAGE [4]; VC1 domain, read-out: Kd1) was 11 nM and the Kd (human sRAGE [4]; VC1 domain, read-out: Kd2) was 244 nM.

For `O=C(c1ccc([18F])cc1)N(Cc1ccccc1)C1CCCCC1` [[^18F]13], the “uptake in frontal cortex of AD compared with healthy control tissue” value (human brain tissue) is given as “higher uptake”, the “time of peak after iv injection” value [5] is given as ≤ 3 min and the “washout over the PET scan” value [5] is given as “virtually complete washout”. The “nonspecific binding in vivo” value ([5]; iv injection) was “significant nonspecific binding to the white matter” and the “metabolism in rat liver microsomes” value [6] was “rapidly metabolized”.

For `C[C@H](CCC(=O)O)[C@H]1CC[C@H]2[C@@H]3[C@@H](O)C[C@@H]4C[C@H](O)CC[C@]4(C)[C@H]3CC[C@]12C` [ursodeoxycholic acid], the antiatherogenic activity (diabetic mice) is listed as “antiatherogenic activity”.

For `O=C1CCC[C@@H]2[C@H]3CCCN4CCC[C@@H](CN12)[C@@H]34` [Compound 14, matrine, reference compound], the Aβ-induced cytotoxicity [7] is given as “inhibits Aβ-induced cytotoxicity”, the “RAGE-Aβ signaling pathway (NF-κB and BACE1 expression levels)” value ([7]; 50 μM) is given as “decrease of NF-κB and BACE1 expression levels” and the “Aβ1–42, NF-κB, BACE1 and cytokines” value ([7]; in vitro and in vivo) is given as “• reduced Aβ1–42, NF-κB, BACE1 and cytokines (in vitro and in vivo)”. For the same molecule, the “Aβ aggregation or fibrillation” value (Aβ) was “prevents Aβ aggregation or fibrillation”, the “brain Aβ, NF-κB, BACE1 levels” value (APPswe/PS1 mice; ip 100 mg/kg) was “reduces” and the “proinflammatory cytokines (TNF-α and IL-1β)” value (APPswe/PS1 mice; ip 100 mg/kg) was “downregulates”. The “transport across the BBB” value (APPswe/PS1 mice; ip 100 mg/kg, AD transgenic mice) was “is transported across the BBB”.

For “ELKVLMEKEL [Compound 19, RAGE antagonistic peptide developed from the structure of S100P]”, the “tumor growth, metastasis and inflammation” value [8] is given as “reduction of tumor growth, metastasis, and inflammation” and the “RAGE activation of NF-κB, inflammation, tumor growth and metastasis” value [9] is given as “reduced; also recorded: inhibition of NF-κB, inflammation, tumor growth and metastasis”.

For `CC(C)(C)OC(=O)N1CCN(CCCOc2ccc(-c3nc4ccc(Oc5ccc(Cl)cc5)cc4o3)cc2)CC1` [Compound 8], the “toxicity in HT22 cells” value (HT22 cells) is given as “not toxic”, the “amyloid deposition / Aβ and amyloid plaque levels in the brain” value (APPswe/PS1 mice; po 50 mg/kg every 2 days for 4 weeks, 50 mg/kg) is given as “did not significantly affect” and the “RAGE-Aβ1–42 binding” value [10] is given as “• RAGE-Aβ1–42 binding inhibition (in vitro)”.

For `CCCCc1sc(-c2ccc(OCCN3CCN(C)CC3)cc2)nc1-c1ccc(Oc2ccc(Cl)cc2)cc1` [Compound 2], the “Aβ1–42-associated NF-κB activation” value (CHO cells) is listed as “• inhibition of Aβ1–42-associated NF-κB activation (in vitro)”, the “Aβ1–42 influx / Aβ transport” value [11] is listed as “Aβ transport inhibition; also recorded: • inhibition of Aβ1–42 influx in the brain” and the RAGE-Aβ binding (human RAGE-Aβ) is listed as “• RAGE-Aβ binding inhibition”. For the same molecule, the IC50 (human RAGE-Aβ; ELISA on human RAGE-Aβ (RAGE-Aβ1–42 interaction)) was 1210 nM.

For heparin [Compound 17], the Kd (human RAGE [12]) is listed as 3.1 nM and the “tumor cell growth, migration, invasion and distant metastasis” value (tumor cell) is listed as “inhibited tumor cell growth, migration, invasion, and distant metastasis”.

In the case of `CN(C)C1CCN(CCOc2cccc(Nc3nc(-c4ccc(Cl)cc4)cc(-c4ccc(Cl)cc4)n3)c2)C1` (centres unmarked) [Compound 5], the “inhibitory activity compared with another compound” value (human RAGE-Aβ1–42) is listed as “improved RAGE-Aβ1–42 inhibition” and the “solubility compared to 3” value [13] is listed as “improved”.

For `O=C(c1ccc(Cl)cc1)N(Cc1ccccc1)C1CCCCC1` [Compound 12, N-Benzyl-N-cyclohexyl-4-chlorobenzamide], the GSH/GSSG ratio (aortas of aged rats) is given as “increased”, the “malondialdehyde and ROS production” value (aortas of aged rats) is given as “reduced” and the BBB permeability is given as “acceptable BBB permeability”. For the same molecule, the “toxicity in RAGE-transfected CHO cells” value ([14]; 10 μM) was “nontoxic”, the “cytotoxicity / toxicology profile in vitro and in vivo” value ([14]; cell culture and rodents) was “good toxicology profile; also recorded: • low cytotoxicity in vitro and in vivo” and the “Aβ1–40-induced NF-κB activation, BACE1 expression, cytokines” value ([14]; in vitro and in vivo) was “• reduced Aβ1–40-induced NF-κB activation, BACE1 expression, cytokines (in vitro and in vivo)”. The “RAGE-mediated cellular oxidative stress, BACE1 mRNA, BACE1 activity, nuclear NF-κB levels” value ([14]; induced by Aβ1–40 and Aβ1–42) was “reduced”, the “binding to immobilized Aβ” value (sRAGE) was “did not bind” and the “Aβ1–40, Aβ1–42, S100B, HMGB1 binding to RAGE” value (sRAGE; in vitro) was “• inhibited Aβ1–40, Aβ1–42, S100B, HMGB1 binding to RAGE (in vitro)”. For the same molecule, the “Aβ expression and APP production, NF-κB-mediated Aβ production, inflammatory response, ROS and lipid peroxidation” value [15] was “reduction”, the antioxidant enzyme activity [15] was “increased” and the “Aβ1–40 and Aβ1–42 levels in brain (cortex, hippocampus)” value (APPsw/0 mice) was “reducing their levels in the cortex and the hippocampus; also recorded: • reduced Aβ1–40 and Aβ1–42 levels in brain”. For the same molecule, the “RAGE actions at the BBB and in the brain” value (APPsw/0 mice) was “• blocked RAGE actions at the BBB and in the brain”, the “RAGE-mediated influx of circulating Aβ1–40 and Aβ1–42 into the brain” value (APPsw/0 mice) was “inhibited; also recorded: • inhibition of Aβ influx in the brain (in vivo)” and the “binding specificity in the CNS” value (APPsw/0 mice) was “bound exclusively to RAGE”. For the same molecule, the “neuronal oxidative stress, microglia activation, neuroinflammation” value (APPsw/0 mice) was “reduced Aβ-induced RAGE-dependent oxidative stress in neurons, suppressed microglia activation, and neuroinflammation”, the “cognitive performance and cerebral blood flow” value (APPsw/0 mice; aged APPsw/0 mice) was “• normalized cognitive performance and cerebral blood flow in aged APPsw/0 mice” and the “soluble APP β protein, p65, NF-κB and BACE1 mRNA levels in cortex and hippocampus” value (APPsw/0 mice; ip 1 mg/kg daily for 2 months) was “reduced”. For the same molecule, the dose not toxic (APPsw/0 mice; ip, 15–17-month-old APPsw/0 mice) was “up to 500 mg/kg”.

For `O=C(O)c1cccnc1C(=O)O` [quinolinic acid], the “neuronal death in the striatum” value (rats) is given as “dose-dependent neuronal death in the striatum”.

B1: S100P: S100 family protein binding the RAGE V domain (protein, UniProt P25815 1-95, looked up)
Protein S100-P: MTELETAMGMIIDVFSRYSGSEGSTQTLTKGELKVLMEKELPGFLQSGKDKDAVDKLLKDLDANGDAQVDFSEFIVFVAAITSACHKYFEKAGLK
For B1, the Kd (human RAGE [16]) is given as 6000 nM.
